Experimental data taken from patent US20060004051A1, “Compounds” (priority 2002, published 2006).
pIC50: −log10 of the molar value.

Columns and labels:
[1] = system: TGF-β signalling (PAI-1 promoter linked to firefly luciferase) in HepG2 cells; experiment: Cellular transcriptional assay (PAI-1 promoter luciferase reporter, TGF-β stimulated); conditions: for pIC50: Homo sapiens, HepG2, read-out: TGF-β cellular activity (IC50)
Experimental: The assay was performed in HepG2 cells stably transfected with the PAI-1 promoter (known to be a strong TGF-β responsive promoter) linked to a luciferase (firefly) reporter gene. The compounds were selected on their ability to inhibit luciferase activity in cells exposed to TGF-β. In addition, cells were transfected with a second luciferase (Renilla) gene which was not driven by a TGF-β responsive promoter and was used as a toxicity control.
96 well microplates were seeded, using a multidrop apparatus, with the stably transfected cell line at a concentration of 35000 cells per well in 200 μl of serum-containing medium. These plates were placed in a cell incubator.
18 to 24 hours later (Day 2), cell-incubation procedure was launched. Cells were incubated with TGF-β and a candidate compound at concentrations in the range 50 nM to 10 μM (final concentration of DMSO 1%). The final concentration of TGF-β (rhTGFβ-1) used in the test was 1 ng/mL. […] The final volume of the test reaction was 150 μl. Each well contained only one candidate compound and its effect on the PAI-1 promoter was monitored.
Columns 11 and 12 were employed as controls. Column 11 contained 8 wells in which the cells were incubated in the presence of TGF-β, without a candidate compound. Column 11 was used to determine the ‘reference TGF-β induced firefly luciferase value’ against which values measured in the test wells (to quantify inhibitory activity) were compared. In wells A12 to D12, cells were grown in medium without TGF-β. […]
12 to 18 hours later (day 3), the luciferase quantification procedure was launched. […] Following agitation (15 to 30 mins), luciferase activities of the plates were read in a dual-injector luminometer (BMG lumistar). For this purpose, 50 μl of luciferase assay reagent and 50 μl of ‘Stop & Glo’ buffer were injected sequentially to quantify the activities of both luciferases. […] For each of the compounds tested, a concentration response curve was constructed from which an IC50 value was determined graphically.

[2] = target: T1, recombinant GST-ALK5 (residues 198-503) (Homo sapiens, UniProt P36897); experiment: Alk5 fluorescence polarization assay; assay type: binding; conditions: rhodamine green-labelled ligand 1 nM, ALK5 10 nM, read-out: ALK5 receptor modulator activity (IC50)
T1 construct: recombinant GST-ALK5 (residues 198-503)
T1 sequence (P36897 198-503): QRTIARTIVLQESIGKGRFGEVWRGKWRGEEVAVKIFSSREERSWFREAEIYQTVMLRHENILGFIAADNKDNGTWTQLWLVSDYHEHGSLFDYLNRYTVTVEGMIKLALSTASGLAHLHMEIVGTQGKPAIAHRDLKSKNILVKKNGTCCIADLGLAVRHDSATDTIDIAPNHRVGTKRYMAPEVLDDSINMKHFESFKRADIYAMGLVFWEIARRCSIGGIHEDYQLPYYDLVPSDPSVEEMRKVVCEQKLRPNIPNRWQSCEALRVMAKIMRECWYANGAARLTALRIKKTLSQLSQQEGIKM
Experimental: Assay 2 (Alk5 Fluorescence Polarization Assay)
Kinase inhibitor compounds conjugated to fluorophores, can be used as fluorescent ligands to monitor ATP competitive binding of other compounds to a given kinase. The increase in depolarization of plane polarized light, caused by release of the bound ligand into solution, is measured as a polarization/anisotropy value. This protocol details the use of a rhodamine green-labelled ligand for assays using recombinant GST-ALK5 (residues 198-503).
Assay buffer components: 62.5 mM Hepes pH 7.5 (Sigma H-4034), 1 mM DTT (Sigma D-0632), 12.5 mM MgCl2 (Sigma M-9272), 1.25 mM CHAPS (Sigma C-3023). […]
ALK5 was added to assay buffer containing the above components and 1 nM of the rhodamine green-labelled ligand so that the final ALK5 concentration was 10 nM based on active site titration of the enzyme. […] The plates were read immediately on a LJL Acquest fluorescence reader (Molecular Devices, serial number AQ1048) with excitation, emission, and dichroic filters of 485 nm, 530 nm, and 505 nm, respectively. The fluorescence polarization for each well was calculated by the Acquest reader and then imported into curve fitting software for construction of concentration response curves. The normalized response was determined relative to the high controls (1 μl DMSO in column 12, rows A-D) and the low controls (1 μl of control compound in column 12, rows E-H). […]

Row | Structure (SMILES) | melting point [°C] | other results
1 | O=C1C=CCC1 [CPO, Cyclopentenone, reference compound] | – | firefly and renilla luciferase activities (toxicity control) ([1]; 500 μM CPO with TGF-β, relative to TGF-β only): around 50%
2 | Nc1nc(-c2ccccn2)c(-c2ccnc(-c3ccc(N4CCOCC4)cc3)c2)s1 [Example 1] | 246 | –
3 | Cc1cccc(-c2nc(N)sc2-c2ccnc(-c3ccc(N4CCOCC4)cc3)c2)n1 [Example 4, 5-{2-[4-(morpholin-4-yl)phenyl]pyridinyl-4-yl}-4-(6-methylpyridin-2-yl)-1,3-thiazol-2-amine] | 250 to 252 | –
4 | Cc1cccc(-c2nc(N)sc2-c2ccnc(-c3ccc(C(=O)N4CCOCC4)cc3)c2)n1 [Example 5, 5-{2-[4-((morpholin-4-yl)carbonyl)phenyl]pyridin-4-yl]-4-(6-methylpyridin-2-y)-1,3-thiazol-2-amine] | 158 to 160 | –
5 | Cc1cccc(-c2nc(N)sc2-c2ccnc(-c3ccc(C(=O)NC4CCOCC4)cc3)c2)n1 [Example 6, 5-{2-[4((tetrahydropyran-4-yl)-aminocarbonyl)-phenyl]pyridin-4-yl}-4-(6-methylpyridin-2-yl)-1,3-thiazol-2-amine] | 230 to 232 | –
6 | Cc1cccc(-c2nc(N)sc2-c2ccnc(-c3ccc(OCCN4CCCC4)cc3)c2)n1 [Example 11, 5-{2-[4-(2-(pyrrolidin-1-yl)-ethoxy)-phenyl]pyridin-4-yl}-4-(6-methylpyridin-2-yl)-1,3-thiazol-2-amine] | 176 to 178 | –
7 | Cc1cccc(-c2nc(N)sc2-c2ccnc(-c3ccc(OCc4cn(C)cn4)cc3)c2)n1 [Example 12, 5-{2-[4-((1-methyl-imidazol-4-yl)methyloxy)-phenyl]pyridin-4-yl}-4-(6-methylpyridin-2-yl)-1,3-thiazol-2-amine] | 226 to 228 | –
8 | Cc1cccc(-c2sc(N)nc2-c2ccnc(-c3ccc(OCC(=O)N4CCOCC4)cc3)c2)n1 [Example 23, 4-[2-(4-((morpholin-4-yl)carbonylmethyloxy)phenyl)pyridin-4-yl]-5-[6-methylpyridin-2-yl]-1,3-thiazol-2-amine] | 172 | –
9 | Nc1nc(-c2ccnc(-c3ccc(C(=O)NC4CCOCC4)cc3)c2)c(-c2ccccn2)s1 [Example 26, 4-[2-(4-((tetrahydropyran-4-yl)aminocarbonyl)phenyl)pyridin-4-yl]-5-[pyridin-2-yl]-1,3-thiazol-2-amine] | 268 | –
10 | Nc1nc(-c2ccnc(-c3ccc(N4CCOCC4)cc3)c2)c(-c2ccccn2)s1 [Example 27, 4-[2-(4-(morpholin-4-yl)phenyl)pyridin-4-yl]-5-[pyridin-2-yl]-1,3-thiazol-2-amine] | 276 | –

Second part, led by results:

Row | melting point [°C] | Structure (SMILES) | other results
11 | 236 to 238 | Cc1cccc(-c2nc(N)sc2-c2ccnc(-c3ccc(S(C)(=O)=O)cc3)c2)n1 [Example 2, 5-{2-[4-(methanesulfonyl)phenyl]pyridin-4-yl}-4-(6-methylpyridin-2-yl)-1,3-thiazol-2-amine] | –
12 | 230 to 232 | CCN1CCN(c2ccc(-c3cc(-c4sc(N)nc4-c4cccc(C)n4)ccn3)cc2)CC1 [Example 3] | pIC50 [2]: 7.85; pIC50 [1]: 7.54
13 | 190 to 192 | Cc1cccc(-c2nc(N)sc2-c2ccnc(-c3ccc(CN4CCOCC4)cc3)c2)n1 [Example 7, 5-{2-[4-((morpholin-4-yl)methyl)phenyl]pyridin-4-yl}-4-(6-methylpyridin-2-yl)-1,3-thiazol-2-amine] | –
14 | 188 to 190 | COc1ccc(-c2cc(-c3sc(N)nc3-c3cccc(C)n3)ccn2)cc1 [Example 8, 5-{2-[4methoxyphenyl]pyridin-4-yl}-4-(6methylpyridin-2-yl)-1,3-thiazol-2-amine] | –
15 | 222 to 224 | Cc1cccc(-c2nc(N)sc2-c2ccnc(-c3ccc(OC(F)(F)F)cc3)c2)n1 [Example 9, 5-{2-[4-trifluoromethoxyphenyl]pyridin-4-yl}-4-(6-methylpyridin-2-yl)-1,3-thiazol-2-amine] | –
16 | 222 | Cc1cccc(-c2sc(N)nc2-c2ccnc(-c3ccc(Cl)cc3)c2)n1 [Example 13, 4-[2-(4-chlorophenyl)pyridin-4-yl]-5-(6-methylpyridin-2-yl]-1,3-thiazol-2-amine] | –
17 | 232 | Cc1cccc(-c2sc(N)nc2-c2ccnc(-c3ccc(OC(F)(F)F)cc3)c2)n1 [Example 14, 4-[2-(4-trifluoromethoxyphenyl)pyridin-4-yl]-5-[6-methylpyridin-2-yl]-1,3-thiazol-2-amine] | –
18 | 246 | Cc1cccc(-c2sc(N)nc2-c2ccnc(-c3ccc(C(=O)N4CCOCC4)cc3)c2)n1 [Example 17] | –
19 | 224 | CCN1CCN(C(=O)c2ccc(-c3cc(-c4nc(N)sc4-c4cccc(C)n4)ccn3)cc2)CC1 [Example 18] | –
20 | 236 | Cc1cccc(-c2sc(N)nc2-c2ccnc(-c3ccc(CN4CCOCC4)cc3)c2)n1 [Example 19, 4-[2-(4-((morpholin-4-yl)methyl)phenyl)pyridin-4-yl]-5-[6-methylpyridin-2-yl]-1,3-thiazol-2-amine] | –
21 | 246 | Cc1cccc(-c2sc(N)nc2-c2ccnc(-c3ccc(N4CCOCC4)cc3)c2)n1 [Example 20, 4-[2-(4-(morpholin-4-yl)phenyl)pyridin-4-yl]-5-[6-methylpyridin-2-yl]-1,3-thiazol-2-amine] | –
22 | 150 | Cc1cccc(-c2sc(N)nc2-c2ccnc(-c3ccc(OCCN4CCCC4)cc3)c2)n1 [Example 21, 4-[2-(4-(2-(pyrolidin-1-yl)-ethoxy)phenyl)pyridin-4-yl]-5-[6-methylpyridin-2-yl]-1,3-thiazol-2-amine] | –
23 | 191 | Cc1cccc(-c2sc(N)nc2-c2ccnc(-c3ccc(OCC(N)=O)cc3)c2)n1 [Example 22, 4-[2-(4-(aminocarbonylmethyloxy)phenyl)pyridin-4-yl]-5-[6-methylpyridin-2-yl]-1,3-thiazol-2-amine] | –
24 | 200 | Cc1cccc(-c2sc(N)nc2-c2ccnc(-c3ccc(CN4CCCC4)cc3)c2)n1 [Example 24, 4-[2-(4-((pyrrolidin-1-yl)methyl)phenyl)pyridin-4-yl]-5-[6-methylpyridin-2-yl]-1,3-thiazol-2-amine] | –
25 | 210 | Cc1cccc(-c2sc(N)nc2-c2ccnc(-c3ccc(CN(C)C)cc3)c2)n1 [Example 25, 4-[2-(4-((dimethylamino)methyl)phenyl)pyridin-4-yl]-5-[6-methylpyridin-2-yl]-1,3-thiazol-2-amine] | pIC50 [2]: 7.54; pIC50 [1]: 7.51
